Laboratory results as given in US20260166084A1, “NOVEL DRUG-INDUCIBLE DEGRADATION TAGS” (THE INSTITUTE OF CANCER RESEARCH: ROYAL CANCER HOSPITAL, priority 2022, published 2026).
“Also recorded” adds a separate entry of the source.

Columns and labels:
[1] = tested on: HMEC cells; assay: Nuclear localisation by immunofluorescence in HMEC; assay type: cell-based, human; conditions: fluorescence microscopy, FIG. 3b and 13
Procedure: To determine localisation of “superdegron” which has a degree of homology with iTAG1, the inventors cloned superdegron into the expression vector to replace iTAG1 as the degron fused with GFP.
HMEC cells were seeded in glass bottom 96-well plates (Perkin Elmer) at a 1000 cells/well and treated with 1 μg/ml DOX for 24 h to induce construct. Cells were fixed using 4% paraformaldehyde in PBS solution for 15 min at 37° C. and permeabilised with 0.05% Titon-X-100 detergent for 10 min at room temperature. Prior to proceeding to cell imaging, the cells were incubated for a min with 1 μg/ml DAPI (ThermoFisher Scientific) to stain the cell nuclei. Cells were visualised on the Zeiss Axio Vert.A1 FL-LED inverted epifluorescence microscope (Zeiss) and images were captured using the ZEN Blue software (Zeiss).

[2] = tested on: anti-B7H3 chimeric antigen receptor (TE9); assay: Cell surface expression of tagged CAR in transduced Jurkat and 293T cells by flow cytometry; assay type: cell-based, human; conditions: for surface expression of tagged CARs: transduced Jurkat cells, 41BB and CD28 versions of TE9 CAR, FIG. 10; for cell surface expression of tagged CAR relative to CD34 marker: transduced 293T and Jurkat cells, FIG. 6
Procedure: Initial experiments evaluated expression and degradation in human Jurat T cell leukaemia cells or human 293T cells, which were stably transduced with untagged, iTAG1(DCD23)-tagged, and iTAG2-tagged anti-B7H3 CAR-T cells. Here the relative expression of the CAR and the CD34 marker gene are determined by direct staining and evaluation by flow cytometry.
Jurkat and 293T cell lines were grown in DMEM with 10% fetal calf serum and transduced with constructs containing CAR+/−degrader tag. Transduction efficiency was analysed 72 hours post transduction by flow cytometry, staining for the CD34 epitope encoded by the RQR8 gene.
(§1) CAR surface expression for transduction efficiency and degradation experiments in primary cells and cell lines was quantified using his-tagged B7H3 protein in combination with anti his-tagged fluorescent antibody (J095G45, BioLegend), and directly fluorescently labelled anti CD34 antibody (QBEnd10, R&D), using LSR2 cytometer. Analysis used Flo-Jo software.

[3] = tested on: iTAG2 and DCD23-tagged chimeric antigen receptor (TE9-28-Z); assay: IMiD induced degradation of tagged CAR in transduced Jurkat cells; assay type: cell-based, human; conditions: for time of drug treatment at which maximal reduction of surface expression is detectable: lenalidomide, pomalidomide, iberdomide
Procedure: (§2) CAR expression in PBMC-derived T cells following degradation with 10, 1, 0.1, 0.01, 0.001 or 0 uM iberdomide after 24 hours, was assessed by flow cytometry. To assess CAR functionality+/−degrader tag, transduced T cells were cultured 24 hours with SUPT1+/−B7H3 at a 1:1 ratio. Supernatant was harvested, and IL-2 and IFNγ levels determined by ELISA.
as §1

[4] = tested on: TE9-28-Z CAR; assay: IMiD induced degradation and re-expression of tagged CAR in primary human T cells; assay type: cell-based
From the text: The re-expression of degraded chimeric antigen receptors following removal of the degrader drug is important for the CAR-T cell to be able to toggle between active and resting states, thereby allowing additional therapeutic manipulation and fine-tuning.
To evaluate the general functionality of the TE9-28Z-iTAG2 anti-B7H3 CAR-T construct when expressed from a different viral vector, driven by alternate promoter, the construct was cloned into third generation lentivector pCLL2 backbone and viral supernatant was generated by transient transfection of 293T cells, with virus pseudotyped with VSV-G. Two versions of the TE9-28Z-iTAG2 sequence were evaluated in this format, which were with and without codon optimisation and removal of cloning scars. There are no differences in amino acid sequence of iTAG2 between original (construct 3) and codon optimised (construct 4) versions (FIG. 16 a and b). […] The log reduction in CAR expression as expressed as geometric median fluorescence intensity (gMFI) was highly consistent. […]
PBMC-derived T cells from 2 healthy donor blood cones were cultured following CD56 depletion (day0) which was performed using Miltenyi CD56 depletion beads and magnetic negative selection using LD columns according to manufacturer's instructions. […] Transduction efficiency was assessed 4 days post transduction by flow cytometry staining for RQR8 and CAR expression.
CAR expression in PBMC-derived T cells following degradation with 10, 1, 0.1, 0.01, 0.001 or 0 uM iberdomide after 24 hours, was assessed by flow cytometry. […] Supernatant was harvested, and IL-2 and IFNγ levels determined by ELISA.
as §1, with “Analysis used Flo-Jo software.” left out

[5] = target: T1, complexes formed between CRBN/DDB1 and IMiDs (Homo sapiens, UniProt Q96SW2); assay: Aiolos peptide-based TR-FRET assay; assay type: binding; conditions: IMiDs at 10 μM
T1 construct: 5 nM WT full length CRBN/DDB1 complex; made in house
Procedure: A schematic representation of the Aiolos peptide-based time resolved-Förster resonance energy transfer (TR-FRET) assay is presented in FIG. 11. […] The results are presented in FIG. 12, including the IC50s calculated from the TR-FRET curves. Overall, the IC50s obtained for iTAG2 were higher than those obtained for iTAG1 with about a 10-fold difference.
All TR-FRET assays were ran in Black 384-well ProxiPlate Plus (Perkin-Elmer, USA), in a buffer containing 20 mM HEPES pH 8.0, 150 mM NaCl, 0.5 mM TCEP, 0.05% Tween 20 and 0.05% BSA, with a final assay volume of 10 μL. An Echo E550 (Beckman Coulter, USA) acoustic liquid dispenser was used to create final concentration ranges from 82 μM down to 2.05 nM for iTAG1 and 27 μM down to 0.68 nM for iTAG2. Final concentrations of 5 nM WT full length CRBN/DDB1 complex, 750 nM Sulfo-Cy5 fluorescent Aiolos-based peptidic probe (Cambridge Research Biochemicals, UK), 750 nM Zn(OAc)^2 and 0.5 nM MAb Anti-6HIS-Terbium cryptate Gold (Cisbio, France) were added with a Tempest liquid handler (Formulatrix, USA). Finally, IMiDs were added to a final concentration of 10 μM with the Echo. Plates were sealed, centrifuged at 200 g for 1 min and stored overnight at 4° C. The TR-FRET signals were read using a PHERAstar FSX plate reader (BMG Labtech, Germany). Final signal was measured as the ratio: […]

[6] = tested on: degron containing domains (DCDs); assay: Degradation matrix of DCD tags with IMiD/CELMoD panel by flow cytometry; assay type: cell-based; conditions: panel of IMiD/CELMoD small molecules, FIG. 1
From the text: FIG. 1: Experimental evaluation of the DCD tags. (a) Heat map summary of the degradation matrix data of all the DCDs tested in flow cytometry experiments. Normalized values were represented in the Log 2 Fold Change relative to the DMSO control. […] (b) Representation of iTAG1-DCD23 (60 aa). The 2 Cys and 2 His from the C2H2 zinc finger motif are highlighted in light grey. The crucial Glycine in the b-hairpin loop degron is highlighted in bold dark grey.
To address the limitations of the currently available protein modulation tools, the inventors developed a novel and robust system for targeted protein degradation by exploiting the fusion of an IMiD/CeLMOD recognition sequence to a protein of interest. […] This 60 amino acid sequence is referred to as iTAG1 (DCD23) herein.
Construct expression was induced by treating cells with 1 μg/ml DOX for 24 h. The cells were treated with IMiDs/CELMoDs at concentrations and time-points indicated for each experimental setting. Cells were collected, on ice, in sterile 5 ml polystyrene round-bottom tubes. DAPI (4′,6-diamidino-2-phenylindole; ThermoFisher Scientific) was added to the cell suspension at a ratio of 1:1000, as a marker for cell viability. The EGFP signal was measured on the BD LSR II flow cytometer (BD Biosciences). Further processing of the results was performed using FlowJo 10 Software (FlowJo).

[7] = tested on: SupT1 cells transduced to express human B7H3; assay: CAR functionality: cytokine ELISA after co-culture with SupT1-B7H3 targets; assay type: cell-based; conditions: primary human T cells
From the text: To evaluate whether the brighter CAR expression of iTAG2 tagged CAR compared with DCD23-tagged CAR translated into greater effector function, the respective CAR-T populations from the two independent donors were co-cultured overnight with human SupT1 leukaemia target cells isogenic for the target antigen B7H3. Wild type SupT1 have no detectable B7H3 expression. Following overnight culture of T cells with the targets, culture supernatant was harvested and evaluated for inflammatory cytokines interferon gamma and Interleukin-2 by ELISA (FIG. 9).
as §2

[8] = target: T2, CRBN/DDB1 complex (Homo sapiens, UniProt Q96SW2); assay: Size exclusion chromatography of CRBN/DDB1 and iTAG2 with or without iberdomide; assay type: binding; conditions: 15 μM CRBN/DDB1, 50 μM iTAG2, 100 μM iberdomide, FIG. 14
T2 construct: made in house
From the text: Biochemical evidence for IMiD-dependent formation of a direct interaction between iTAG2 and the CRBN/DDB1 complex was generated using size exclusion chromatography (SEC). Purified CRBN/DDB1 protein complex and iTAG2 protein were mixed together and subjected to SEC in the presence or absence of iberdomide, shown in FIG. 14. The SEC peak 1 corresponding to the higher molecular weight species was shifted towards a lower elution time in the presence of iberdomide, with a slight increase in the optical density at 280 nm, which is consistent with the formation of a larger complex in the presence of iberdomide (FIG. 14A). SDS-PAGE analysis of representative fractions of the SEC analysis in the absence of iberdomide confirmed that the SEC peak 1 contains only DDB1 and CRBN proteins, with iTAG2 only present in the SEC peak 2 (FIG. 14B).
SEC was performed using a Superose 6 5/150 GL column (Cytiva Life Sciences) mounted on an Agilent 1260 Infinity II LC System HPLC system. […] 100 μL fractions were collected and samples spanning the elution peaks were analysed by SDS-PAGE on precast NuPAGE 4-12% Bis-Tris gels (Invitrogen) using standard protocols, with SeeBlue Plus2 pre-stained protein standards (Invitrogen) loaded on the first lane of each gel.

[9] = 1:1 with SupT1-B7H3, overnight, ELISA, FIG. 9

T2 sequence (Q96SW2 whole entry, one chain of several): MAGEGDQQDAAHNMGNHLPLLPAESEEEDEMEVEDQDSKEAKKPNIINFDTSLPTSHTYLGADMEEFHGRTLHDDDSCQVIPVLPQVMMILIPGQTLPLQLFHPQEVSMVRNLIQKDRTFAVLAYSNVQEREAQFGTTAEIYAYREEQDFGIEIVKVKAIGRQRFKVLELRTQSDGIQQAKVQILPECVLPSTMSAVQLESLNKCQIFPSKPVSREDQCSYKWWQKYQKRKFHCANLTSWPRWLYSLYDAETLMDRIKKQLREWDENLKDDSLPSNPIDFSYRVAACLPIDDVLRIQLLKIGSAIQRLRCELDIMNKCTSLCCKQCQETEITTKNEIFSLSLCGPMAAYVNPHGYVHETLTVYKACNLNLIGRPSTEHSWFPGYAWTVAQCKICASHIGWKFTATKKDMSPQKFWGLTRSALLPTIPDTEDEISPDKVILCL
T2 sequence (Q16531 2-1140 partner, one chain of several): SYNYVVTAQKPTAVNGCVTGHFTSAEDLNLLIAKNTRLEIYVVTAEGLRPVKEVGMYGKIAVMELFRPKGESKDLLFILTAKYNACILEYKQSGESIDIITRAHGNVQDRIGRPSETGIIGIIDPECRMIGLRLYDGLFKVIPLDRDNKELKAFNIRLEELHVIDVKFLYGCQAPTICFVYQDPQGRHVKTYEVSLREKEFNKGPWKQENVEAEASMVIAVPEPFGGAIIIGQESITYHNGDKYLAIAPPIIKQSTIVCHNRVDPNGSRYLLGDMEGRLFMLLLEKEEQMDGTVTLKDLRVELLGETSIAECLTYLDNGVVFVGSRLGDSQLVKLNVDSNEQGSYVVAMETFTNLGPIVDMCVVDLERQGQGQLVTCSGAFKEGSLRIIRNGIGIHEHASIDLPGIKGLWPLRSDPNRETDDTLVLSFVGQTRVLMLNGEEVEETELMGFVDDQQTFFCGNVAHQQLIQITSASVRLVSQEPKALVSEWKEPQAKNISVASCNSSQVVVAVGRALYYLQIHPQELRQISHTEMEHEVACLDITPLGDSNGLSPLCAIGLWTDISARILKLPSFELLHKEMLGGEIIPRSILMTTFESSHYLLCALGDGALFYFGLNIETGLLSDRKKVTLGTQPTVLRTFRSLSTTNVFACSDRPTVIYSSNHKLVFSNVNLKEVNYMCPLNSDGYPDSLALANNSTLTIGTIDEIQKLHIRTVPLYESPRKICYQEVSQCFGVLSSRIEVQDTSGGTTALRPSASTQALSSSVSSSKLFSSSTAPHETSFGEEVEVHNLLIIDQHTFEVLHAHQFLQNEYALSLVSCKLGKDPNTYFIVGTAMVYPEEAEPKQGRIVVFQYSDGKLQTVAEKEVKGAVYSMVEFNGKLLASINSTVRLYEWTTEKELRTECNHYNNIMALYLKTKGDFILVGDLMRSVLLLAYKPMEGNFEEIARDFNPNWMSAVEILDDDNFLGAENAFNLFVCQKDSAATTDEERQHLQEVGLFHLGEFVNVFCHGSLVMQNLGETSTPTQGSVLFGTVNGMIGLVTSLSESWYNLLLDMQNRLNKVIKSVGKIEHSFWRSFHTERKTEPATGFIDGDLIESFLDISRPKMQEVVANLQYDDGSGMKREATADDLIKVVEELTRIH
T1 sequence (Q96SW2 whole entry): as the sequence (Q96SW2 whole entry, one chain of several) above
T1 sequence (Q16531 whole entry partner): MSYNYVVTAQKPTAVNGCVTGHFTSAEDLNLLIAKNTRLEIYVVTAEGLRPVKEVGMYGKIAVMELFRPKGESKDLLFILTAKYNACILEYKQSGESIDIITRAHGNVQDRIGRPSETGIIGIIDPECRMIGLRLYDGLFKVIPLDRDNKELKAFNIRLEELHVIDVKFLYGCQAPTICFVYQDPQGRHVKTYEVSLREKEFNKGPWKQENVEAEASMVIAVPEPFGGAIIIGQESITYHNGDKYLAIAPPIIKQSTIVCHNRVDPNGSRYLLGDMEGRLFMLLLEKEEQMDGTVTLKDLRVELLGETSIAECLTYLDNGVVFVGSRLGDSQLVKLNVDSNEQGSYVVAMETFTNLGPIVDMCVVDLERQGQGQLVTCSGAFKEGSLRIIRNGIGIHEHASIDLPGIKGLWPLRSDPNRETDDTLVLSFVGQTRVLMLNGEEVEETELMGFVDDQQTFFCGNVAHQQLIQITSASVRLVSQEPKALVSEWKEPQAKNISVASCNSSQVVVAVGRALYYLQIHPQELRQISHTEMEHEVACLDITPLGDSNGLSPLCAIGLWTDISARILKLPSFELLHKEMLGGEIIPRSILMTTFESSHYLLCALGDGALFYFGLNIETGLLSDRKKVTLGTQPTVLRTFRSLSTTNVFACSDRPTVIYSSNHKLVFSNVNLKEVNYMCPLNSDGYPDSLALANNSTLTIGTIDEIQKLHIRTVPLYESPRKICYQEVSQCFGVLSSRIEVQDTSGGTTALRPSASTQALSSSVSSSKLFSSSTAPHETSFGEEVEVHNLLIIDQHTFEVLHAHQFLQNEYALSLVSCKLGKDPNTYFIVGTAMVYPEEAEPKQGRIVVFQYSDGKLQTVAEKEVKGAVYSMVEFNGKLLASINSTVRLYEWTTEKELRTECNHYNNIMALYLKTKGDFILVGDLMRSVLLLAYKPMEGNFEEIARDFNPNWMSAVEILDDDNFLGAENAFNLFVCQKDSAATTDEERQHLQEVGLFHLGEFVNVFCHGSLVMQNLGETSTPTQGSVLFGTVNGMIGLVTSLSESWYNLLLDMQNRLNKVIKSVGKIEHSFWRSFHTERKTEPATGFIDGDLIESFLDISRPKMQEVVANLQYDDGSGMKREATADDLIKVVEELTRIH

SuperDegron: prototypic zinc finger-based 60 amino acid degron, hybrid of ZFP91 and IKZF3 (WO2019089592) (FNVLMVHKRSHTGERPLQCEICGFTCRQKGNLLRHIKLHTGEKPFKCHLCNYACQRRDAL; SuperDegron) [reference compound]
nuclear accumulation / localisation of tagged EGFP/GFP [1]: strong nuclear localisation
surface expression of tagged CARs [2]: weak surface expression

O=C1CC[C@H](N2Cc3c(OCc4ccc(CN5CCOCC5)cc4)cccc3C2=O)C(=O)N1 [Iberdomide/ CC220, Iberdomide]
drug concentration at which nearly maximal downregulation is observed ([3]; iTAG1(DCD23) and iTAG2 tagged CAR, FIG. 7): 0.01 µM
potency for degradation among lenalidomide, pomalidomide and iberdomide ([3]; tagged CAR, FIG. 7): highest potency
optimal IMiD concentration to mediate CAR downregulation upon treatment and re-upregulation upon withdrawal ([4]; TE9-iTAG2 CAR-T, overnight treatment, wash, 24 h rest, FIG. 15): 0.01 µM
CAR expression after drug treatment ([4]; primary human T cells, 10 uM iberdomide for 24 hours, FIG. 8): near complete loss of expression of the brightly expressed CAR population
relative affinity of iTAG1 and iTAG2 for CRBN/DDB1-IMiD complex, order of IMiDs [5]: tightest binding

iTAG1: 60 amino acid degron tag based on a chimeric sequence of Ikaros and ZFP91 (PNVLMVHKRSHTGERPLQCEICGFTCRQKGNLLRHIKLHSGEKPFKCHLCNYACRRRDAL)
drug-induced degradation of DCD tag [6]: induces acute target degradation in vitro and in vivo
nuclear accumulation / localisation of tagged EGFP/GFP [1]: predominant nuclear localisation
cell surface expression of tagged CAR relative to CD34 marker [2]: relatively poor cell surface expression
surface expression of tagged CARs [2]: weak surface expression
time of drug treatment at which maximal reduction of surface expression is detectable [3]: 4 h
reduced IL-2 secretion compared with iTAG2 fusion protein [7, 9]: approximately 30 fold
reduced effector function compared with iTAG2 fusion protein, interferon gamma secretion [7, 9]: approximately 5 fold

iTAG2: mutated iTAG1 degron tag, SEQ ID NO: 43, PNVLMVHNESHTGEIPLQCEICGFTCEQAGNLLNHIELHSGEIPFKCHLCNYACRRRDAL (iTAG2)
nuclear accumulation / localisation of tagged EGFP/GFP [1]: abolished nuclear accumulation; also recorded: cytoplasmic localisation
cell surface expression of tagged CAR relative to CD34 marker [2]: superior cell surface expression
surface expression of tagged CARs [2]: same expression as wild type
time of drug treatment at which maximal reduction of surface expression is detectable [3]: 4 h
CAR re-expression after drug washout ([4]; washed in PBS, rested 24 h in RPMI1640, FIG. 15): re-upregulated after IMiD washout
antigen-dependent reactivity, superiority over DCD23-tagged CAR-T [7]: approximately 10 fold
effector function compared with untagged CAR ([7]; SupT1-B7H3, FIG. 9): not significantly different to untagged CAR
complex formation by SEC and SDS-PAGE [8]: formation of a complex between DDB1, CRBN and iTAG2 in the presence of iberdomide
